What all share (assay type): cell-based
One assay has as its system Alternaria sp. Put plainly: Marine-derived fungi growth inhibition (OD405). To be noted: Alternaria, 120 h; growth inhibition, 5 days, 26 °C; read-out: IC50 Alternaria sp. The procedure: (§1) All the biological assays were run by triplicate. […] For the active products, serial dilutions were performed to calculate the half-maximal inhibitory concentrations (IC50) or the minimal inhibitory concentrations (MIC). Unless otherwise stated, the test concentrations were 100, 50, 25, 10, 5, 2.5, 1, 0.5 and 0.1 μM. Dose-response curves were adjusted with GraphPad Prism 5 software using a four-parameter non-linear regression model.
(§2) Three strains of marine-derived fungi were kindly provided by Dr. Á. Trigos (University of Veracruz, Mexico). The strains were isolated from reef organisms collected from the Veracruz Reef System and identified as Aspergillus sp., Fusarium sp. and Alternaria sp..
(§3) Fungal strains were cultured in Potato-Dextrose Agar (PDA) supplemented with filtered seawater (FSW) (50% v/v) at 26 °C for 5 days prior to experiments. […] Briefly, fungal inocula were prepared by addition of 5 ml of sterile saline solution to the cultures. Gently swabbing released conidia. […] The plates were incubated for 5 days at 26 °C. The calculation of the half-maximal inhibitory concentrations (IC50) was performed using OD405 as endpoint.

The subject of a further assay is Aspergillus sp. Kind of assay: Marine-derived fungi growth inhibition (OD405). To be noted: Aspergillus, 120 h; growth inhibition, 5 days, 26 °C; read-out: IC50 Aspergillus sp. The method, then: as §1, §2, §3
In a further assay the test system is C. violaceum CVO26. Put plainly: C. violaceum CVO26 growth inhibition (OD625). As to conditions: Chromobacterium violaceum, CVO26, 18 h, read-out: IC50 (Growth inhibition). The method, then: The reporter strain C. violaceum CVO26 (CECT 5999) was used to screen the ability of the products to interfere with violacein production, a QS-regulated phenotype. C. violaceum CVO26 is a mini-Tn5 mutant that depends on an exogenous source of autoinducer (AI) (N-hexanoyl homoserine lactone, HHL) for violacein production. C. violaceum CVO26 was cultured in LB broth (Sigma-Aldrich) supplemented with 25 μg ml^-1 kanamycin. Inocula were prepared by dilution (1:100) of an overnight culture of the reporter strain [49]. One hundred microliters of inoculum with HHL (Sigma-Aldrich, 6 μM) or without the AI were added to 96-well plates containing 100 μl of the appropriate dilutions of the test products in LB. Thus, two sets of plates were prepared. One set of plates (without HHL) was used to evaluate the effect of the products on bacterial growth, whereas the other set of plates (with HHL) was used to evaluate their effect on violacein production. Both sets of plates were incubated at 30 °C with agitation (150 rpm) for 18 h.
Growth inhibition was quantified in the first batch of plates by re-suspending bacterial pellets and measuring the OD625. From the second batch of plates violacein was extracted and quantified. Briefly, the plates were dried overnight (60 °C) and violacein was re-solubilized by the addition of 200 μl of DMSO. The plates were shaken for 3 h and then the OD590 was determined.
Indeed, the inhibitions observed in violacein production for long alkyl chains (10–18, 20) were clearly correlated to the biocidal effect exerted by these compounds, with ‘therapeutic ratios’ (IC50 for growth inhibition/IC50 for violacein inhibition) around 1, in general (Table 2). Note that, as the length of the hydrocarbon chain becomes shorter, this ratio increased (8–9). […] To evaluate these compounds in further detail, […] stock solutions were prepared […] to avoid the use of high concentrations of DMSO in the bioassays. […] Serial two-fold dilutions (500–3.9 μM) were assayed. Consequently, the highest amount of DMSO used in the assay was 0.25% (v/v). […] Growth inhibitory effects are only observed at 500 μM, particularly for compound 7 (Fig 6D).

Assay [1] has as its system Gayralia oxysperma spores. Put plainly: Macroalgal spore germination inhibition. To be noted: 6 days, 19±1 °C. The procedure:
as §1
To evaluate the effect of the phosphonium salts on the germination of macroalgal spores, Gayralia oxysperma (Kützing) K.L.Vinogradova was selected as model organism. G. oxysperma (Ulotrichales, Chlorophyta) is a cosmopolitan member of the Ulvophyceae. Unlike Ulva species, which produce biflagellate male and female gametes, as well as quadriflagellate spores, G. oxysperma only produces biflagellate spores. This is an advantage as bioassays can be conducted straightforwardly without the need to distinguish between gamete-producing and zoospore-producing plants. […] Fresh fertile fragments were selected and placed in Petri dishes. Spores were then released in Von Stosch Solution (VSS) by the osmotic method. Bioassays were conducted in flat-bottom 96-well plates as described by Chambers and co-workers, with slight modifications. Each well was filled with 50 μl of the appropriate dilution of the products in VSS to which 50 μl of spore inoculum (ca. 2 x 10^5 spores ml^-1) were added. Plates were incubated at 19±1 °C for 6 days. After the incubation time, the bottom of each well was examined for the presence of germinated spores with an inverted microscope. A spore was considered as germinated when the germ tube was visible. The MIC was recorded as the lowest concentration inhibiting spore germination.

A further assay relates to Nitzschia sp. Kind of assay: Benthic diatom growth inhibition (chlorophyll-a). As to conditions: 120 h; growth, 5 days, chlorophyll-a; read-out: IC50 Nitzschia sp. The procedure: as §1
(§4) Five strains of benthic diatoms, Nitszchia sp. […] The Nitzschia and Navicula strains were purchased from the Spanish Bank of Algae (Marine Biotechnology Center, University of Las Palmas de Gran Canaria). The other three strains were kindly provided by Dr. G. Courtois (University of Las Palmas de Gran Canaria). Diatoms were cultured at 19±1 °C in Erlenmeyer flaks (250 ml) containing 150 ml of Guillard’s F/2 medium, and subjected to a photoperiod of 18:6. Tests were run in 48-well plates. Inocula were prepared by adjusting diatom concentration to 2–4 × 10^6 cells ml^-1 using a Neubauer chamber. Test products were dissolved in F/2 medium (500 μl) to which diatom inocula (500 μl) were added. Thus, the final assay volume was 1 ml and the starting cell densities were ca. 1–2 x 10^6 diatoms ml^-1. Plates were incubated under the abovementioned conditions for 5 days and then chlorophyll-a (Chla) was quantified.
(§5) In order to extract Chla, the content of each well was transferred to a microcentrifuge tube and centrifuged at 10,000 rpm for 10 min. The supernatants were discarded and 200 μl of DMSO were added to the pellets. The tubes were incubated at 65 °C for 2 h in total darkness and vortexed every 30 min. Then, the content of each tube was transferred to a 96-well plate and the amount of Chla was determined spectrophotometrically. Path length correction factor for the DMSO extracts was determined.

For assay [2], the system named is Navicula cf. salinicola BEA 0055. Put plainly: Benthic diatom growth inhibition (chlorophyll-a). To be noted: 120 h; growth, 5 days, chlorophyll-a; read-out: IC50 Navicula cf. salinicola. The procedure:
as §1, §4, §5

In a further assay the test system is Amphora sp. Put plainly: Benthic diatom growth inhibition (chlorophyll-a). To be noted: 120 h; growth, 5 days, chlorophyll-a; read-out: IC50 Amphora sp. The method, then:
as §1, §4, §5

The test system of another assay is Cylindrotheca sp. Kind of assay: Benthic diatom growth inhibition (chlorophyll-a). To be noted: 120 h; growth, 5 days, chlorophyll-a; read-out: IC50 Cylindrotheca sp. The method, then: as §1, §4, §5
Assay [3] relates to Phaeodactylum tricornutum. Kind of assay: Benthic diatom growth inhibition (chlorophyll-a). As to conditions: Phaeodactylum tricornutum, 120 h; growth, 5 days, chlorophyll-a; read-out: IC50 P. tricornutum. The procedure: as §1, §4, §5

Bounds are passed on as bounds.

What is called IC50 is the concentration at which inhibition is half-maximal.

As to `BrC(Br)[P+](c1ccccc1)(c1ccccc1)c1ccccc1` [Compound 1], the concentration for half-maximal inhibition (IC50) was greater than 100 µM in the assay on Alternaria sp.; greater than 100 µM in the assay with Aspergillus sp.; greater than 100 µM in the assay with C. violaceum CVO26; 18.7 µM in the assay with Nitzschia sp.; 10.6 µM in assay [2]; 19.5 µM in the assay with Amphora sp.. In addition, the results for the IC50 (in the assay with Cylindrotheca sp.; in assay [3]) were 9.8 µM and 16.8 µM, respectively. For the same compound, the “MIC G. oxysperma (lowest concentration inhibiting spore germination)” value in assay [1] came out at 100 µM.
On to `COC(=O)CCC[P+](c1ccccc1)(c1ccccc1)c1ccccc1` [Compound 2], for which the half-maximal inhibitory concentration (IC50) is greater than 100 µM with Alternaria sp.; greater than 100 µM with Aspergillus sp.; greater than 100 µM with C. violaceum CVO26; 40.2 µM in the assay with Nitzschia sp.; 50.2 µM in assay [2]; 43.4 µM in the assay with Amphora sp.. The figures for the IC50 (in the assay with Cylindrotheca sp.; in [3]) were 23.7 µM and greater than 100 µM, respectively. Also, the “MIC G. oxysperma (lowest concentration inhibiting spore germination)” value in assay [1] is greater than 100 µM.
Consider `C/C=C/C[P+](c1ccccc1)(c1ccccc1)c1ccccc1` [Compound 3], for which the 50% inhibitory concentration (IC50) in the assay on Alternaria sp. is greater than 100 µM; in the assay with Aspergillus sp. it was greater than 100 µM; in the assay with C. violaceum CVO26 it was greater than 500 µM; in the assay with Nitzschia sp., greater than 100 µM; in assay [2], 62.2 µM; with Amphora sp. it was greater than 100 µM. Further, the IC50 (with Cylindrotheca sp.; in assay [3]) was greater than 100 µM in each case. Also, in [1], the “MIC G. oxysperma (lowest concentration inhibiting spore germination)” value was greater than 100 µM.
For `BrCCCC[P+](c1ccccc1)(c1ccccc1)c1ccccc1` [Compound 4], the concentration for half-maximal inhibition (IC50) in the assay with Alternaria sp. was greater than 100 µM; in the assay on Aspergillus sp. it was greater than 100 µM; with C. violaceum CVO26, greater than 500 µM; in the assay on Nitzschia sp., greater than 100 µM; in assay [2] it was greater than 100 µM; in the assay with Amphora sp. it was greater than 100 µM. Moreover, the IC50 (in the assay on Cylindrotheca sp.; in [3]) was greater than 100 µM in each case. In addition, the “MIC G. oxysperma (lowest concentration inhibiting spore germination)” value in assay [1] is greater than 100 µM.
For the compound `CCCCN[P+](c1ccccc1)(c1ccccc1)c1ccccc1` [Compound 5], the IC50 with Alternaria sp. was greater than 100 µM; in the assay with Aspergillus sp., greater than 100 µM; in the assay on C. violaceum CVO26, greater than 500 µM; in the assay with Nitzschia sp., 11.9 µM; in assay [2], 8.2 µM; in the assay on Amphora sp., 42.5 µM. Also, the IC50 in the assay on Cylindrotheca sp. worked out at 12.6 µM; in assay [3], 81.5 µM. The “MIC G. oxysperma (lowest concentration inhibiting spore germination)” value in [1] is 100 µM.
Consider `O=S(=O)([O-])CCCC[P+](c1ccccc1)(c1ccccc1)c1ccccc1` [Compound 6], for which the 50% inhibitory concentration (IC50) (in the assay with Alternaria sp.; in the assay on Aspergillus sp.; in the assay with C. violaceum CVO26; with Nitzschia sp.; in [2]; with Amphora sp.) was greater than 100 µM each time. Also, the IC50 in the assay on Cylindrotheca sp. is 21.3 µM; in assay [3] it was greater than 100 µM. Also, the “MIC G. oxysperma (lowest concentration inhibiting spore germination)” value in [1] is greater than 100 µM.
As for `CCCCC[P+](c1ccccc1)(c1ccccc1)c1ccccc1` [Compound 7], the IC50 with Alternaria sp. is greater than 100 µM; with Aspergillus sp. it was greater than 100 µM; with C. violaceum CVO26, greater than 500 µM; in the assay with Nitzschia sp., greater than 100 µM; in assay [2], greater than 100 µM; in the assay with Amphora sp. it was greater than 100 µM. For the same compound, the IC50 (in the assay with Cylindrotheca sp.; in [3]) was greater than 100 µM each time. Further, the “MIC G. oxysperma (lowest concentration inhibiting spore germination)” value in [1] was greater than 100 µM.
Regarding `CCCCCCC[P+](c1ccccc1)(c1ccccc1)c1ccccc1` [Compound 8, heptyl triphenylphosphonium bromide], the IC50 in the assay with Alternaria sp. amounted to 12 µM; in the assay with Aspergillus sp. it was 12.4 µM; in the assay on C. violaceum CVO26 it was 52.5 µM; with Nitzschia sp. it was 20.8 µM; in [2], 6.4 µM; in the assay on Amphora sp., 37.6 µM. Also, the concentration for half-maximal inhibition (IC50) was determined as 10.6 µM in the assay with Cylindrotheca sp. and 92.2 µM in assay [3]. Besides, in assay [1], the “MIC G. oxysperma (lowest concentration inhibiting spore germination)” value is 100 µM.
Take `CCCCCCCCC[P+](c1ccccc1)(c1ccccc1)c1ccccc1` [Compound 9]: the IC50 with Alternaria sp. was determined as 7.4 µM; in the assay on Aspergillus sp. it was 10 µM; with C. violaceum CVO26, 16 µM; with Nitzschia sp. it was 3.6 µM; in [2] it was 2.7 µM; in the assay with Amphora sp., 6.2 µM. Besides, the concentration for half-maximal inhibition (IC50) in the assay on Cylindrotheca sp. turned out to be 1.9 µM; in assay [3], 11.2 µM. Moreover, the “MIC G. oxysperma (lowest concentration inhibiting spore germination)” value in assay [1] was 50 µM.
Regarding `CCCCCCCCCC[P+](c1ccccc1)(c1ccccc1)c1ccccc1` [Compound 10], the IC50 in the assay with Alternaria sp. was found to be 5.2 µM; in the assay on Aspergillus sp., 11.7 µM; in the assay on C. violaceum CVO26, 11.9 µM; with Nitzschia sp., 2.5 µM; in assay [2] it was 2.3 µM; with Amphora sp. it was 3.2 µM. Moreover, the values for the half-inhibitory concentration (IC50) (with Cylindrotheca sp.; in [3]) were 1 µM and 1.9 µM, respectively. The “MIC G. oxysperma (lowest concentration inhibiting spore germination)” value in assay [1] turned out to be 50 µM.
With `CCCCCCCCCCC[P+](c1ccccc1)(c1ccccc1)c1ccccc1` [Compound 11], the IC50 in the assay with Alternaria sp. is 3.5 µM; in the assay on Aspergillus sp., 5.1 µM; in the assay with C. violaceum CVO26, 4.9 µM; in the assay with Nitzschia sp., 2.3 µM; in assay [2], 1.5 µM; in the assay with Amphora sp., 3.3 µM. In addition, the IC50 in the assay on Cylindrotheca sp. turned out to be 1 µM; in assay [3], 1.7 µM. Besides, in assay [1], the “MIC G. oxysperma (lowest concentration inhibiting spore germination)” value worked out at 50 µM.
